Experimental data: PMC9599613 (Biomolecules, 2022)
Where two headings read alike, the source gives them in different places.

Assays:
[1] = target: T1, acetylcholinesterase (AChE) (Electrophorus electricus, UniProt O42275); assay: Anticholinesterase assay (Ellman's), AChE inhibition; type: biochemical
T1 construct: acetylcholinesterase (AChE, obtained from Electrophorus electricus); from tissue
Protocol: (§1) This enzyme method relied on the hydrolytic of acetyl cholinethioiodide (ATChI) by acetylcholinesterase and butyrylthiocholine iodide (BTchI) by butyrylcholinesterase. As a result of this breakdown, 5-thio-2-nitrobenoate anions formed. […] The absorption was measured with a spectrophotometer, as per the protocols. […] An amount of 0.1 M phosphate buffer (8.0 ± 0.1 pH) solution was prepared, whose final pH was adjusted by using the KOH solution.
(§2) In this assay, 50 µL enzyme solution and 50 µL DTNB reagent were added to 1 mL test samples in a cuvette and then incubated at 30 °C for 15 min. Afterward, a 50 µL substrate solution was added to the mixture.

[2] = target: T2, butyrylcholinesterase (BChE) (Equus caballus, UniProt P81908); assay: Anticholinesterase assay (Ellman's), BChE inhibition; type: biochemical, equine
T2 construct: butyrylcholinesterase (BChE, obtained from equine serum); from tissue; host or cells: equine serum
T2 sequence (P81908 whole entry): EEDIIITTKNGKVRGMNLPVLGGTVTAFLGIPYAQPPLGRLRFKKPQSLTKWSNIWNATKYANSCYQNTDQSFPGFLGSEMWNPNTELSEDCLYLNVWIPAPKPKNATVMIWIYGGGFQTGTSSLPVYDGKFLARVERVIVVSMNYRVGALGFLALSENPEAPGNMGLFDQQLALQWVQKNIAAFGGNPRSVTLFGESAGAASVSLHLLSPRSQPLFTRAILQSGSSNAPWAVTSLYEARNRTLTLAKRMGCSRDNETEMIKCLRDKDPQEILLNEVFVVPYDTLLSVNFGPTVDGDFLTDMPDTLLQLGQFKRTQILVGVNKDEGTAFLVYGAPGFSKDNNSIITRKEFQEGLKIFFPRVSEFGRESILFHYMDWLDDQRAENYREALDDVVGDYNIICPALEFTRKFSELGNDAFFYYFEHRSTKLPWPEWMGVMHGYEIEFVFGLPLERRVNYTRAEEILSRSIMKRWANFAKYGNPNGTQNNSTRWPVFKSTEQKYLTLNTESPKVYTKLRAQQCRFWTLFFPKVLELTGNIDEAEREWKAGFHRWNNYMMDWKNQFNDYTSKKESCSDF
Protocol: as §1, §2

COX-1 = COX-1 (Homo sapiens, UniProt P23219); assay: biochemical; details: read-out: % COX-1 Inhibition
COX-1, sequence (P23219 24-599): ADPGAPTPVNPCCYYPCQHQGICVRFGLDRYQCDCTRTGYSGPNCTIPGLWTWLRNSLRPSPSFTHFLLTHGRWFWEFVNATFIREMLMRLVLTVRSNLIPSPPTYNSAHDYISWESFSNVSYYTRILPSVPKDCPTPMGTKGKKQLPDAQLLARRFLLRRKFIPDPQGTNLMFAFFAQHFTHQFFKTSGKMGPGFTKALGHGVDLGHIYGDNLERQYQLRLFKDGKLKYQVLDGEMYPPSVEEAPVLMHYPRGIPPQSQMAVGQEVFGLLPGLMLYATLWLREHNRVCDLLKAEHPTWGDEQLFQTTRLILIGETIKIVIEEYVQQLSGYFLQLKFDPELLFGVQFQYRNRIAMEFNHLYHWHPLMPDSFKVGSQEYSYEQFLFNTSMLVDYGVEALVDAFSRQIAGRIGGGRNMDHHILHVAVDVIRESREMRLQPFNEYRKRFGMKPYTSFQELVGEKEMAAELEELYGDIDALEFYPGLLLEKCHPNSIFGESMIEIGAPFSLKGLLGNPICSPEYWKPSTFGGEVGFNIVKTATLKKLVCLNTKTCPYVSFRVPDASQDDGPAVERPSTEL
Protocol: (§3) The Cyclooxygenase enzymes (COX-1 and 2) inhibitory potential of our test compounds was determined according to the previously reported procedure. […] The enzyme solutions with a concentration of 0.7–0.8 μg/10 μL (COX-1) and 300 U/mL (COX-2) were prepared. To start the assay, for enzyme activation, 10 µL enzyme solution (kept in a cool temperature of 4 °C for 5 min) and cofactor containing hematin (50 µL, 1 mM), glutathione (0.9 mM) and TMPD in a Tris-buffer (0.1 M) with a pH 8.0 was added. After that, 60 µL of the enzyme solution was added to 20 µL of the test samples of various concentrations and incubated at room temperature for 5 to 10 min. Then, 20 µL of arachidonic acid (30 mM) was added to start the reaction. The mixture was then again incubated for 15 min at 37 °C, and absorbances were measured at 570 nm with UV-visible spectrophotometer. […] The % enzyme inhibitions were calculated by using the previously reported formula.

COX-2 = target: T3, COX-2 (Homo sapiens, UniProt P35354); assay: biochemical
T3 sequence (P35354 18-604): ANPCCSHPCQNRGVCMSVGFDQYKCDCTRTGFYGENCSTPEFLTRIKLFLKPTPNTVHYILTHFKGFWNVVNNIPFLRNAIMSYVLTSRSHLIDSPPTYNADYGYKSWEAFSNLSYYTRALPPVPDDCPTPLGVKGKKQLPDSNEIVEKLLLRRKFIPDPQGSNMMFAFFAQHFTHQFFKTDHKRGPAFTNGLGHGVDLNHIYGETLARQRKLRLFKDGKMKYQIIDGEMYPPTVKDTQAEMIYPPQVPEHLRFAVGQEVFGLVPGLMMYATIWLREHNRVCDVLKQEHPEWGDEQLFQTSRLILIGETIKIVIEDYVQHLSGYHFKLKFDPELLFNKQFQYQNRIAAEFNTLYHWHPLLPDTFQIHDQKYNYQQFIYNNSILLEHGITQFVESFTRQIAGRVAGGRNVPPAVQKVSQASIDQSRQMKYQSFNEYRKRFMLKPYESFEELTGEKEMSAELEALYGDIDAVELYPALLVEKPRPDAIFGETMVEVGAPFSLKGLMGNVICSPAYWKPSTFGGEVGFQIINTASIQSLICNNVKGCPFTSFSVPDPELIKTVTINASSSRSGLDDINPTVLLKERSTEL
Protocol: as §3

human recombinant 5-LOX = target: T4, human recombinant 5-LOX (Homo sapiens, UniProt P09917); assay: biochemical; details: for inhibition at 62.5 µg/mL / inhibition at 125 µg/mL / inhibition at 250 µg/mL / inhibition at 500 µg/mL / inhibition at 1000 µg/mL: read-out: % 5-LOX Inhibition
T4 sequence (P09917 1-674): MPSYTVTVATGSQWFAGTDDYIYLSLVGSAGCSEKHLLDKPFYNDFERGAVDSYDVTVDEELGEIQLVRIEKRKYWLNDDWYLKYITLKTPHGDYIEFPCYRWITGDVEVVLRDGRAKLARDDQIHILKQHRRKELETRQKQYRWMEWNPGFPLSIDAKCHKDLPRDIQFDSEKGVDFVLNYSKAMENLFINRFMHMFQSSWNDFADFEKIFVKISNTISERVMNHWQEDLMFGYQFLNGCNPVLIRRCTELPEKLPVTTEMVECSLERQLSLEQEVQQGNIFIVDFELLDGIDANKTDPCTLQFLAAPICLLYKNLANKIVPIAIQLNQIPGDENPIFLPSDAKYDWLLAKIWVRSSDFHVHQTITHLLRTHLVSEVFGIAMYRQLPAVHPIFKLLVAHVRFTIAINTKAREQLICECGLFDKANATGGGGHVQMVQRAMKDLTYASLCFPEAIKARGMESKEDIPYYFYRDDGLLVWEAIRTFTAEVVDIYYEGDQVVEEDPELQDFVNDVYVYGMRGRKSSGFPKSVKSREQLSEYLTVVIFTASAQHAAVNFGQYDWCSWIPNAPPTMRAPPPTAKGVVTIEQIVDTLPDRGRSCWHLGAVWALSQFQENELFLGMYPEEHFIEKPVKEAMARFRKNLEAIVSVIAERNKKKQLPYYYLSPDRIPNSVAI
Protocol: The lipoxygenase assay on our test compounds was performed by utilizing human recombinant 5-LOX [65]. […] The enzyme solution with a concentration of 10,000 U/mL was prepared, whereas 80 mM linoleic acid solution was used as a substrate. Solutions were prepared in a phosphate buffer (50 mM) with a pH of 6.3, which was also utilized as the blank. To start, various concentrations of our test samples were dissolved in 0.25 mL of the buffer, to which 0.25 mL enzyme solution was added and incubated at 25 °C for 5 min. Afterward, the substrate solution (0.1 mL) was added to the mixture and shaken well. […] In this assay, the standard drug was montelukast, and using the following formula, the % inhibitions were calculated: % enzyme inhibition=X−X1/X×100 where X = absorbance of the negative control (with no test sample), and X1 = absorbance of the test compound.

[3] = ABTS free radical scavenging assay
Protocol: The antioxidant potentials of isolated phytosteroids 1 and 2 were also determined using the ABTS (2,2′-azino-bis(3-ethylbenzothiazoline-6-sulfonic acid)) standard method. […] This created free radicals within the sample. Afterward, the addition of 50% methanol and the ABTS radical cation solution were adjusted to pH 7.4 by dilution with the phosphate buffer (pH 7.4). […] The positive control was ascorbic acid, and the assay was repeated in triplicate. The percent radical scavenging potential of the test compounds was calculated using the standard reported formula.

[4] = DPPH free radical scavenging assay
Protocol: The antioxidant potentials of isolated compounds (phytosteroids 1 and 2) were determined following the DPPH standard assay. Initially, DPPH (24 mg) was dissolved in methanol (100 mL). Stock solutions of the test compounds were prepared in different dilutions (62.50–1000 μg/mL). From each dilution, 1 mL was mixed with 1 mL of the DPPH solution. The solution mixtures were incubated at room temperature for 0.5 h. Afterward, absorbance was recorded at 517 nm with a UV-visible spectrophotometer. Ascorbic acid was the standard drug, whereas the DPPH solution without the compound was negative control. The percent radical scavenging potential of the test compounds was calculated using the following formula: % DPPH activity=X−X1/X×100 where X = absorbance of the control, and X1 = absorbance of the test compound.

[5] = 1000 μg/mL, listed as compound 1

T1 sequence (O42275 24-633): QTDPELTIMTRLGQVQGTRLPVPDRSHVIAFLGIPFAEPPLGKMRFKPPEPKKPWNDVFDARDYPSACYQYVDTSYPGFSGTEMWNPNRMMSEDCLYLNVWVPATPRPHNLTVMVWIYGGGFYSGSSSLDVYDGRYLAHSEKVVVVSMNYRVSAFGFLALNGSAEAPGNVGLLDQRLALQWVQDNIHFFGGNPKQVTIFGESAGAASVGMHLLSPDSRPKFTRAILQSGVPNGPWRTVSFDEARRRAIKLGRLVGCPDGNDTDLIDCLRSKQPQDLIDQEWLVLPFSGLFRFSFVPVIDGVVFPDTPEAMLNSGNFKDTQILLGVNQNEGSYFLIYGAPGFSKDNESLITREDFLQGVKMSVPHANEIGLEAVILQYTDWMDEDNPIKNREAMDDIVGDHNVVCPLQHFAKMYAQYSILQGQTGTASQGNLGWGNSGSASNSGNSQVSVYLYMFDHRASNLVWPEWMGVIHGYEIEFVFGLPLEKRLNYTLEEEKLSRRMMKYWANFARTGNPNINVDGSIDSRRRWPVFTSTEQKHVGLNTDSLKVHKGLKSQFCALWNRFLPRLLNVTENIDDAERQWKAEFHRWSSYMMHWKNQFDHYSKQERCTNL

## CC(C)C/C=C\C(C)C1CCC2C3CCC4=CC(=O)CCC4(C)C3CCC12C (stereo not drawn) [Compound 1, (Z)-10,13-dimethyl-17-(6-methylhept-3-en-2-yl)-1,2,6,7,8,9,10,11,12,13,14,15,16,17-tetradecahydro-3H-cyclopenta[a]phenanthren-3-one]
[1]; 62.5 μg/mL
  AChE inhibition (%): 55.56 ± 0.52 %
[1]; 125 μg/mL
  AChE inhibition (%): 64.78 ± 0.60 %
[1]; 250 μg/mL
  AChE inhibition (%): 71.46 ± 0.53 %
[1]; 500 μg/mL
  AChE inhibition (%): 77.68 ± 0.63 %
[1]; 1000 μg/mL
  AChE inhibition (%): 85.72 ± 0.79 ^ns %
[1]; read-out: AChE IC50 (converted)
  IC50: 53 µM
[2]
  IC50: 71.5 µM
[2]; 62.5 μg/mL
  Percent BChE (mean ± SEM): 59.81 ± 0.65 %
[2]; 125 μg/mL
  Percent BChE (mean ± SEM): 66.65 ± 0.78 %
[2]; 250 μg/mL
  Percent BChE (mean ± SEM): 75.70 ± 0.62 %
[2]; 500 μg/mL
  Percent BChE (mean ± SEM): 80.76 ± 0.63 %
[2]; 1000 μg/mL
  Percent BChE (mean ± SEM): 84.83 ± 0.62 %
COX-1
  inhibition at 62.5 µg/mL: 22.4 ± 0.49%
  inhibition at 125 µg/mL: 40.6 ± 0.84%
  inhibition at 250 µg/mL: 43.5 ± 0.46%
  inhibition at 500 µg/mL: 59.56 ± 0.45%
  inhibition at 1000 µg/mL: 66.29 ± 0.43%
COX-2
  IC50: 28 µM
COX-2; read-out: % COX-2 Inhibition
  inhibition at 62.5 µg/mL: 61.1 ± 0.7%
  inhibition at 125 µg/mL: 66.4 ± 0.7%
  inhibition at 250 µg/mL: 72.7 ± 0.51%
  inhibition at 500 µg/mL: 78.83 ± 0.73%
  inhibition at 1000 µg/mL: 83.13 ± 0.8%
Human recombinant 5-LOX
  IC50: 19.3 µM
  inhibition at 62.5 µg/mL: 65.68 ± 0.64%
  inhibition at 125 µg/mL: 71.42 ± 0.46%
  inhibition at 250 µg/mL: 76.53 ± 0.41%
  inhibition at 500 µg/mL: 82.45 ± 0.55%
  inhibition at 1000 µg/mL: 87.63 ± 0.64%
[3]
  ABTS IC50: 369.86 µg/mL
[3]; 62.5 μg/mL
  Percent ABTS Activity (mean ± SEM): 29.67 ± 0.61 %
[3]; 125 μg/mL
  Percent ABTS Activity (mean ± SEM): 35.69 ± 0.77 %
[3]; 250 μg/mL
  Percent ABTS Activity (mean ± SEM): 43.83 ± 0.56 %
[3]; 500 μg/mL
  Percent ABTS Activity (mean ± SEM): 54.60 ± 0.80 %
[3]; 1000 μg/mL
  Percent ABTS Activity (mean ± SEM): 62.61 ± 0.77 %
[3]; [5]
  Percent ABTS Activity (mean ± SEM): 62.61 ± 0.77%
[4]
  DPPH IC50: 314.78 µg/mL
[4]; 62.5 μg/mL
  Percent DPPH Activity (mean ± SEM): 31.53 ± 0.71 %
[4]; 125 μg/mL
  Percent DPPH Activity (mean ± SEM): 37.51 ± 0.77 %
[4]; 250 μg/mL
  Percent DPPH Activity (mean ± SEM): 45.75 ± 0.58 %
[4]; 500 μg/mL
  Percent DPPH Activity (mean ± SEM): 56.45 ± 0.49 %
[4]; 1000 μg/mL
  Percent DPPH Activity (mean ± SEM): 64.79 ± 0.62 %
[4]; [5]
  Percent DPPH Activity (mean ± SEM): 64.79 ± 0.62%

## CC(C)(O)c1ccccc1CC[C@@H](SCC1(CC(=O)O)CC1)c1cccc(/C=C/c2ccc3ccc(Cl)cc3n2)c1 [Montelukast, montelukast, reference compound]
Human recombinant 5-LOX
  IC50: 7.68 µM
Human recombinant 5-LOX; 62.50 μg/mL
  inhibition at 62.5 µg/mL: 74.17 ± 0.72%
Human recombinant 5-LOX; 125 μg/mL
  inhibition at 125 µg/mL: 79.6 ± 0.9%
Human recombinant 5-LOX; 250 μg/mL
  inhibition at 250 µg/mL: 85.5 ± 0.4%
Human recombinant 5-LOX; 500 μg/mL
  inhibition at 500 µg/mL: 89.4 ± 1.65%
Human recombinant 5-LOX; 1000 μg/mL
  inhibition at 1000 µg/mL: 93.55 ± 0.4%

## O=C1O[C@H]([C@@H](O)CO)C(O)=C1O [AA, Ascorbic acid, reference compound]
[3]
  ABTS IC50: 21.72 µg/mL
[3]; 62.5 μg/mL
  Percent ABTS Activity (mean ± SEM): 53.00 ± 0.57%
[3]; 125 μg/mL
  Percent ABTS Activity (mean ± SEM): 62.50 ± 0.44%
[3]; 250 μg/mL
  Percent ABTS Activity (mean ± SEM): 66.33 ± 0.33%
[3]; 500 μg/mL
  Percent ABTS Activity (mean ± SEM): 74.66 ± 1.20%
[3]; 1000 μg/mL
  Percent ABTS Activity (mean ± SEM): 79.00 ± 0.16%
[4]
  DPPH IC50: 11.47 µg/mL
[4]; 62.5 μg/mL
  Percent DPPH Activity (mean ± SEM): 61.30 ± 0.52%
[4]; 125 μg/mL
  Percent DPPH Activity (mean ± SEM): 66.37 ± 0.58%
[4]; 250 μg/mL
  Percent DPPH Activity (mean ± SEM): 72.29 ± 0.43%
[4]; 500 μg/mL
  Percent DPPH Activity (mean ± SEM): 78.58 ± 0.56%
[4]; 1000 μg/mL
  Percent DPPH Activity (mean ± SEM): 84.39 ± 0.60%

## CC(=O)Oc1ccccc1C(=O)O [Aspirin, aspirin, reference compound]
COX-1; 62.50 μg/mL
  inhibition at 62.5 µg/mL: 51.68 ± 0.22%
COX-1; 125 μg/mL
  inhibition at 125 µg/mL: 59.84 ± 0.32%
COX-1; 250 μg/mL
  inhibition at 250 µg/mL: 66.43 ± 0.29%
COX-1; 500 μg/mL
  inhibition at 500 µg/mL: 71.88 ± 0.2%
COX-1; 1000 μg/mL
  inhibition at 1000 µg/mL: 75.89 ± 0.2%
